Measured values as given in PubChem BioAssay AID1699 (The Scripps Research Institute Molecular Screening Center, 2009).
pIC50: −log10 of the molar value. Calls of active or inactive are those of the source.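 How the source made its calls: active means IC50 on parental Ba/F3 cells at or below 10 µM; inactive means IC50 above 10 µM.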

tested on: parental Ba/F3 viability, CellTiter-Glo ATP luminescence; assay: parental Ba/F3 viability inhibition, dose response, counter-screen for JAK2V617F inhibitor project, cell-based, luminescence (AID 1699)

Structure (SMILES) | pIC50 | IC50
O=C(O)c1[nH]c(=O)[nH]c(=O)c1F | 5.16 | 
Cc1nn2c(NCc3ccccn3)c3c(nc2c1-c1ccccc1)CCC3 | 5.37 | 
COc1ccccc1C(C[N+](=O)[O-])c1c(N)n(C)c(=O)n(C)c1=O (centres undefined) | 5.19 | 
O=C(CCl)NC(=O)NC12CC3CC(CC(C3)C1)C2 | 5.36 | 
O=C(CCl)N=c1sccn1Cc1ccccc1Cl | 5.95 | 
Cc1ccc2nc(C)cc(Nc3ccc([N+](=O)[O-])cc3)c2c1 | 5.48 | 
O=C(CSc1nnnn1-c1ccc(F)cc1)c1ccc(O)c(O)c1 |  | 11.1 µM (inactive)
CC(C)(C)OC(=O)N[C@@H](Cc1ccccc1)c1nnc(S(=O)(=O)Cc2cccc(F)c2)o1 | 5.43 | 
CS(=O)(=O)c1nc(-c2ccco2)cc(C(F)(F)F)n1 | 5.64 | 
O=C(Nc1cccc(NC(=O)c2cccs2)c1)c1ccc([N+](=O)[O-])o1 | 5.43 | 
CCCC(=O)N(C1CC(C)C(C#N)(C#N)C1(C#N)C#N)N(C)C (centres undefined) | 5.32 | 
CCCOc1ccc(C(=O)C(CN2CCOCC2)c2ccccc2)cc1 (centres undefined) | 5.61 | 
O=C1C=CC(=O)N1CCNc1ncc(C(F)(F)F)cc1Cl | 5.75 | 
O=S(=O)(c1cnc(Cl)c(Cl)c1)N1CCc2ccccc21 |  | 15.8 µM (inactive)
COc1cccc(/C=N/NC(=O)c2[nH]c(C)c(C(=O)N/N=C/c3cccc(OC)c3O)c2C)c1O | 5.18 | 
Oc1ccc(/C=N/N2CCN(C3c4ccccc4-c4ccccc43)CC2)cc1O | 5.25 | 
COc1ccc(Nc2ccc3c(c2)=NC2(CCCCC2)[N+]=3[O-])cc1 | 5.77 | 
O=S(=O)(c1cnc(Cl)c(Br)c1)N1CCc2ccccc21 | 5.28 | 
CCN(CC)S(=O)(=O)c1cccc(-n2c(O)c(C=Nc3ccccc3C(=O)O)c3ccccc3c2=O)c1 |  | > 40 µM (inactive)
O=c1cnn([C@@H]2O[C@H](CO)[C@@H](O)[C@H]2O)c(=O)[nH]1 | 5.17 | 
Cc1[nH]c2ccccc2c(=O)c1C(=O)/C=C/c1ccccc1 | 5.51 | 
Cc1nc([N+](=O)[O-])c(Br)n1Cc1ccc(Cl)c(Cl)c1 | 5.07 | 
CCCn1c(CC)nc([N+](=O)[O-])c1S(=O)(=O)c1ccccc1 | 5.23 | 
COc1ccc(N2CCc3c(C)nc4c(OC)cc(OC)cc4c32)c(OC)c1 | 5.08 | 
CCC(C)[C@@H](NC(=O)OC(C)(C)C)c1nnc(S(=O)(=O)Cc2cccc(C)c2)o1 (some centres undefined) | 5.33 | 
C/C(=C\c1ccc(N(C)C)cc1)[N+](=O)[O-] | 5.46 | 
CC(C)(C)/C(O)=C/c1nc2cc(Cl)ccc2oc1=O | 5.02 | 

Structure (SMILES) | pIC50 | IC50
O=C1/C(=C/c2ccc(O)c(O)c2)SC(=S)N1Nc1ccccc1 |  | 11 µM (inactive)
Cc1nc([N+](=O)[O-])c(Br)n1CC(=O)c1ccc2ccccc2c1 | 5.43 | 
O=C(/C=C/c1ccc(O)c(O)c1)c1ccc(S(=O)(=O)N2CCCCCC2)cc1 | 5.12 | 
Cc1c(Cc2ccccc2)c(=O)oc2c(O)c(O)ccc12 | 5.06 | 
Cc1cc(SCC(=O)N/N=C/c2ccc(O)c(O)c2)c(C)cc1Br |  | 10.7 µM (inactive)
O=C1C=C(Nc2ccc(O)cc2)C(=O)c2ccccc21 | 5.12 | 
O=C(NC1C=CS(=O)(=O)C1)c1sc2ccccc2c1Cl (centres undefined) |  | 13.8 µM (inactive)
COc1ccc(-c2cc(-c3cc(C)ccc3O)[nH]n2)cc1 | 5.06 | 
Cc1cccc(Nc2nc(N)nc(CCl)n2)c1C | 5.68 | 
N#C/C(=C\c1ccc(O)c(O)c1)C(=O)NCCCc1ccccc1 | 5.22 | 
O=C1C=CCC(/C=C/c2ccccc2)O1 (centres undefined) | 5.07 | 
Cc1ccc(Cn2ccsc2=NC(=O)CCl)cc1 | 5.11 | 
CN(c1ccccc1)S(=O)(=O)c1cccc(C(=O)NCCc2ccc(O)c(O)c2)c1 |  | > 40 µM (inactive)
COc1ccc2nc(C)cc(Sc3nc4ccccc4s3)c2c1 | 5.16 | 
CC1CCCN(CCCNC(=O)c2cc3c(Cl)nc4ccccc4c3s2)C1 (centres undefined) | 5.46 | 
CC(C)(C)c1cc(NC(=O)CCl)n(-c2ccccc2)n1 | 5.42 | 
COC(=O)COc1cccc2c(=O)n(CC(=O)NCc3ccc(F)cc3)ccc12 | 5.48 | 
O=S(=O)(c1cccs1)N1CCN(c2ccc(O)cc2)CC1 | 5.25 | 
c1ccc(CCNc2nc(-c3ccccn3)nc3ccccc23)cc1 | 5.52 | 
Cc1ccccc1CS(=O)(=O)c1nnc([C@H](Cc2ccccc2)NC(=O)OC(C)(C)C)o1 | 5.27 | 
COc1ccc(OC)c(NS(=O)(=O)c2ccc(SC)cc2)c1 |  | 12.4 µM (inactive)
COc1ccc(-n2nnnc2SCC(=O)c2ccc(O)c(O)c2)cc1 | 5.48 | 
O=C(Nc1cccc2c1[nH]c1ccccc12)C(F)(F)F |  | 13.7 µM (inactive)
COc1ccccc1-c1nnc(Sc2nc([N+](=O)[O-])nn2C)o1 | 5.33 | 
C#CCSc1nsc(SCC#C)c1C#N | 5.55 | 
COc1cc(/C=C2\COC/C(=C\c3ccc(O)c(OC)c3)C2=O)ccc1O | 5.44 | 
COc1ccc(Nc2nc(N)nc(CCl)n2)cc1 | 5.58 | 
